Assay: xn = mol fraction of the nth substance listed
Conditions: 101 kPa, Liquid; for viscosity: Concentric cylinders viscometry; for mass density: Vibrating tube method

COC(C)(C)C [2-methoxy-2-methylpropane] + CCCCO
Conditions | mass density, 293.15 K [kg/m3] | mass density, 298.15 K [kg/m3] | mass density, 303.15 K [kg/m3] | mass density, 308.15 K [kg/m3] | viscosity, 293.15 K [mPa·s] | viscosity, 298.15 K [mPa·s] | viscosity, 303.15 K [mPa·s] | viscosity, 308.15 K [mPa·s]
x1 = 0.0104 | 809.06 | 805.25 | 801.38 | 797.5 | 2.875 | 2.518 | 2.22 | 1.958
x1 = 0.0243 | 808.13 | 804.31 | 800.43 | 796.52 | 2.741 | 2.41 | 2.126 | 1.882
x1 = 0.0294 | 807.77 | 803.94 | 800.06 | 796.14 | 2.696 | 2.374 | 2.094 | 1.855
x1 = 0.0396 | 807.09 | 803.24 | 799.35 | 795.41 | 2.618 | 2.298 | 2.032 | 1.8
x1 = 0.0498 | 806.41 | 802.54 | 798.63 | 794.68 | 2.522 | 2.227 | 1.973 | 1.75
x1 = 0.0601 | 805.74 | 801.84 | 797.91 | 793.95 | 2.439 | 2.156 | 1.908 | 1.697
x1 = 0.0699 | 805.07 | 801.16 | 797.21 | 793.24 | 2.366 | 2.093 | 1.857 | 1.654
x1 = 0.0804 | 804.38 | 800.44 | 796.49 | 792.5 | 2.296 | 2.028 | 1.809 | 1.612
x1 = 0.0898 | 803.72 | 799.79 | 795.81 | 791.81 | 2.224 | 1.969 | 1.752 | 1.564
x1 = 0.1006 | 802.95 | 798.99 | 795 | 790.98 | 2.144 | 1.903 | 1.695 | 1.514
x1 = 0.1507 | 799.54 | 795.53 | 791.47 | 787.38 | 1.85 | 1.656 | 1.489 | 1.334
x1 = 0.1993 | 796.26 | 792.17 | 788.04 | 783.88 | 1.6 | 1.437 | 1.294 | 1.169
x1 = 0.2516 | 792.7 | 788.55 | 784.35 | 780.11 | 1.382 | 1.25 | 1.132 | 1.029
x1 = 0.3022 | 789.27 | 785.01 | 780.75 | 776.43 | 1.216 | 1.103 | 0.9992 | 0.9132
x1 = 0.3515 | 785.87 | 781.6 | 777.25 | 772.86 | 1.077 | 0.9815 | 0.893 | 0.8189
x1 = 0.4031 | 782.33 | 777.98 | 773.56 | 769.1 | 0.9523 | 0.8743 | 0.797 | 0.7323
x1 = 0.4497 | 779.15 | 774.73 | 770.24 | 765.7 | 0.8598 | 0.7902 | 0.7267 | 0.6743
x1 = 0.4999 | 775.69 | 771.23 | 766.66 | 762.05 | 0.7724 | 0.7125 | 0.6568 | 0.6081
x1 = 0.5485 | 772.39 | 767.84 | 763.2 | 758.52 | 0.6999 | 0.6476 | 0.5981 | 0.5512
x1 = 0.5953 | 769.2 | 764.57 | 759.86 | 755.11 | 0.6397 | 0.5937 | 0.5512 | 0.5073
x1 = 0.6445 | 765.82 | 761.14 | 756.35 | 751.52 | 0.585 | 0.5452 | 0.506 | 0.4692
x1 = 0.6999 | 762 | 757.24 | 752.37 | 747.46 | 0.53 | 0.4937 | 0.4595 | 0.4236
x1 = 0.7466 | 758.77 | 753.92 | 748.98 | 744 | 0.4912 | 0.4586 | 0.4275 | 0.395
x1 = 0.8067 | 754.66 | 749.65 | 744.63 | 739.55 | 0.4474 | 0.4167 | 0.3876 | 0.3578
x1 = 0.8404 | 752.26 | 747.22 | 742.14 | 737.01 | 0.4251 | 0.3961 | 0.3679 | 0.3465
x1 = 0.8695 | 750.22 | 745.15 | 740.03 | 734.85 | 0.408 | 0.3799 | 0.3544 | 0.3327
x1 = 0.8983 | 748.09 | 743 | 737.86 | 732.64 | 0.3889 | 0.3651 | 0.3371 | 0.3165
x1 = 0.9092 | 747.32 | 742.21 | 737.05 | 731.8 | 0.3832 | 0.3591 | 0.3333 | 0.3137
x1 = 0.9188 | 746.62 | 741.51 | 736.33 | 731.09 | 0.3778 | 0.3547 | 0.3301 | 0.3112
x1 = 0.9299 | 745.83 | 740.69 | 735.5 | 730.24 | 0.3717 | 0.3493 | 0.3249 | 0.305
x1 = 0.9398 | 745.11 | 739.96 | 734.74 | 729.47 | 0.3683 | 0.3491 | 0.329 | 0.3048
x1 = 0.9492 | 744.42 | 739.25 | 734.03 | 728.76 | 0.3654 | 0.3479 | 0.3225 | 0.3006
x1 = 0.9607 | 743.59 | 738.39 | 733.15 | 727.86 | 0.358 | 0.3391 | 0.3169 | 0.2958
x1 = 0.9697 | 742.97 | 737.75 | 732.49 | 727.18 | 0.356 | 0.331 | 0.3107 | 0.2998
x1 = 0.9796 | 742.24 | 737.01 | 731.74 | 726.41 | 0.3489 | 0.3267 | 0.3076 | 0.2964
x1 = 0.9902 | 741.47 | 736.22 | 730.94 | 725.59 | 0.3456 | 0.3214 | 0.2976 | 0.2892

From the NIST ThermoML archive (doi:10.1016/j.jct.2011.02.018)
